{
  "source": "paper PMC4806436",
  "about": "“Disrupted ADP-ribose metabolism with nuclear Poly (ADP-ribose) accumulation leads to different cell death pathways in presence of hydrogen peroxide in procyclic Trypanosoma brucei” (Parasites & Vectors, 2016)",
  "key": {"TbPARP": {"target": "TbPARP (Trypanosoma brucei brucei, UniProt Q0PW89)", "sequence (Q0PW89 entry or part of it)": "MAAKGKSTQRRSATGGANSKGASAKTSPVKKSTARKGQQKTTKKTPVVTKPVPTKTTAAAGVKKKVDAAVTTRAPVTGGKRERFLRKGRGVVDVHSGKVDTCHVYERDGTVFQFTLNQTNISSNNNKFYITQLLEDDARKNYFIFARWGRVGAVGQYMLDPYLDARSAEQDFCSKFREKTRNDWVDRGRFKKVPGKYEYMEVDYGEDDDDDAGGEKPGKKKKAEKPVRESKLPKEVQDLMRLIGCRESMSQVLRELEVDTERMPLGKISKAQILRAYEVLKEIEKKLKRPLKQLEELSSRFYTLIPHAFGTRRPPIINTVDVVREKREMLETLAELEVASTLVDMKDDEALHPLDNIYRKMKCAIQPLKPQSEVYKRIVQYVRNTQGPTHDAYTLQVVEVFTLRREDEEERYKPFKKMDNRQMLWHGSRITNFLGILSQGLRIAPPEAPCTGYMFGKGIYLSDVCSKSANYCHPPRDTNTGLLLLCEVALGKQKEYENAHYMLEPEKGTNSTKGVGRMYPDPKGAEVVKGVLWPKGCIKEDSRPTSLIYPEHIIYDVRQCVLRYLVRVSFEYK", "experiment": "biochemical", "settings": "5 nM TbPARP, 500 nM NAD+, 11 min at 25 °C, mean of three dose-response curves", "procedure": "The optimal conditions for the activity of purified recombinant TbPARP, were determined by using a fluorometric activity assay. Incubation at 25 °C with shaking at 300 rpm was placed in propylene plates of 96 wells (Greiner BioOne). To terminate the reaction 2 M KOH (20 μL) and 20 % acetophenone in ethanol (20 μL) were added to each well. After incubating for 10 min at 4 °C, 90 μl of 88 % formic acid was added and incubated in an oven at 110 °C for 5 min. This reaction converts remaining NAD^+ to a fluorescent derivative. After incubation, the plate was allowed to cool down for 15 min and fluorescence was measured using excitation wavelengths of 372 nm and 444 nm for excitation and emission, respectively (Varioskan Flash 4.00.53, Thermo Scientific). Consumption of NAD^+ was detected by the decrease in fluorescence. Experiments were done in triplicates. The activity in control wells were kept under 25 % by optimizing the protein concentration and the incubation time, in order to get a robust signal without slowing down the enzyme activity.\nA small set of cations was also tested in order to verify whether the enzymatic activity would depend on them. […] The final assay buffer was 100 mM Na2HPO4/NaH2PO4 pH 7, 500 μM TCEP, 1 μg/μL BSA, and 0.025 mg/mL activated DNA (Sigma Aldrich) and 500 nM NAD^+ (Sigma Aldrich).\nThirty - one compounds were tested. Dilutions from DMSO stocks were made (100 μM, 10 μM and 1 μM) and aliquots of those were used in the enzymatic reaction with 10-fold dilution. Inhibitor solutions were added in triplicates to the plate, followed by the addition of the NAD^+. Reactions were initiated by addition of TbPARP diluted in the same buffer (10 nM). The plate was incubated at 25 °C with shaking (300 rpm, Biosan PST-100 HL) for 45 min. […] To detect any potential fluorescence inherent in the compounds, control reactions were carried out separately with compound alone at 10 μM final concentration. The possible fluorescence quenching properties were controlled using wells within the experimental plate containing the compound with 500 nM NAD^+ in the assay buffer.\nThe IC50 value for 3-AB (Alexis Biochemicals) was also determined to be used as a reference. Briefly, reaction mix together with the inhibitors at half log dilutions were added to a 96-well plate (10 data points). Reactions were incubated for 11 min at 25 °C after initiating the reaction with the addition of 5 nM TbPARP at a final volume of 50 μL. Measurement of the remaining NAD^+ is described in section Screening of TbPARP inhibitors. All reactions were performed in triplicates and three independent dose response curves were fitted for each inhibitor. Control wells with only NAD^+ or NAD^+ and enzyme were used in the curve fitting, as detailed in our previous work."}, "[1]": {"tested_on": "PAR formation in procyclic T. brucei", "experiment": "In culture inhibition of PAR formation after H2O2, Dot blot, procyclic form", "assay_type": "cell-based, Trypanosoma brucei", "settings": "inhibitor at 10-fold in vitro IC50 (0.23 μM 4-ANI; 65 nM EB-47; 29 nM Olaparib; 1.5 μM Rucaparib), 30 min preincubation, 500 μM H2O2 10 min", "procedure": "(§1) T. brucei procyclic strain 29–13 [29] was cultured at 28 °C in SDM-79 (Bioscience) containing 10 % (v/v) FCS and 0002 % hemin. T. brucei bloodstream strain 427 90-13 [29] was cultured at 37 °C in HMI-11 (Iscore’s Modified Dulbecco’s Medium (Invitrogen), 100 mg/L sodium pyruvate, 136.1 mg/L hypoxantine, 38.7 mg/L thymidine, 28.22 mg/L bathocuproinedisulfonic acid, 181.8 mg/L L-cysteine, 3.024 mg/L sodium carbonate, 196 μM β-mercaptoethanol) containing FCS (10 % v/v). Parasite viability was analyzed by microscopy.\n(§2) For in culture inhibition assays, parasites of the procyclic form of Trypanosoma brucei were grown for 48 h up to a density of 5×10^6 parasites/mL. Parasites of the bloodstream form were grown for 24 h up to a density of 5×10^5 parasites/mL. In both cases, cells were harvested and preincubated for 30 min or 10 min in PBS-Glucose 2 % with inhibitors added, after which the parasites were treated with 500 μM or 250 μM hydrogen peroxide for procyclic and bloodstream forms, respectively, for 10 min."}, "[2]": {"tested_on": "PAR formation in bloodstream T. brucei", "experiment": "In culture inhibition of PAR formation after H2O2, Dot blot, bloodstream form", "assay_type": "cell-based, Trypanosoma brucei", "settings": "inhibitor at 10-fold in vitro IC50 (29 nM Olaparib; 1.5 μM Rucaparib), 10 min preincubation, 250 μM H2O2", "procedure": "as §1, §2"}, "[3]": {"tested_on": "Trypanosoma brucei procyclic parasites", "experiment": "Effect of inhibitors on procyclic parasite growth (OD600, 48 h)", "assay_type": "cell-based", "procedure": "Trypanosoma brucei procyclic parasites were grown in SDM-79 medium for 48 h until reaching a density of 5×10^6 cells/mL. Aliquots of 200 μl were distributed in 96-well plates and inhibitors were present at different final concentrations, as indicated in the figures. Nifurtimox (NFX) was used as a positive control in concentrations ranging from 0.25–25 μM. Culture density was checked by OD600 after 48 h.\nIn all experiments, triplicates were done for each condition tested and data significance was assessed by one-way Anova (GraphPad Prism5.03 version Software)."}, "[4]": {"tested_on": "Trypanosoma brucei bloodstream parasites", "experiment": "Effect of inhibitors on bloodstream parasite growth (Neubauer count, 24 h)", "assay_type": "cell-based", "settings": "Olaparib 29 nM, Rucaparib 1.5 μM, 3-AB 580 μM, Nifurtimox 2.5 μM", "procedure": "Trypanosoma brucei bloodstream parasites were grown in HMI-11 medium for 24 h until reaching a density of 5×10^5 cells/mL. Aliquots of 100 μL were distributed in 96-well plates and inhibitors were added at different concentrations as indicated in the figures. After an incubation period of 24 h, the parasite number was counted with a Neubauer chamber. In all experiments, triplicates were done for each condition tested and data significance was assessed by one-way Anova (GraphPad Prism5.03 version Software)."}, "TcPARP": {"tested_on": "TcPARP", "set-up": "method as in PMID 23049934", "settings": "read-out: potency towards TcPARP; cited from earlier work"}},
  "note": "Entries after “also recorded” stand apart in the source; their conditions may differ. Where two headings read alike, the source gives them in different places.",
  "data": [
    {"smiles": "CNCc1ccc(-c2[nH]c3cc(F)cc4c3c2CCNC4=O)cc1", "note": "[Rucaparib, 6-fluoro-2-{4-[(methylamino)methyl]phenyl}-3,10-diazatricyclo[6.4.1.0^{4,13}]trideca-1,4(13),5,7-tetraen-9-one]", "values": [
      {"measurement": "IC50", "setting": "TbPARP; read-out: TbPARP IC50", "value": 150, "unit": "nM"},
      {"measurement": "IC50", "setting": "TbPARP; read-out: TbPARP pIC50 ± SEM (converted)", "value": 148, "unit": "nM"},
      {"measurement": "inhibition of PAR formation in culture, procyclic form", "setting": "[1]", "value": "inhibited PAR formation in culture; also recorded: able to reduce PAR formation"},
      {"measurement": "inhibition of PAR formation in culture, bloodstream form", "setting": "[2]", "value": "able to inhibit PAR formations in culture; also recorded: able to reduce PAR formation"},
      {"measurement": "impact on growth rate of procyclic parasites", "setting": "[3]; 15 μM (highest concentration)", "value": "visible impact on the growth rate"},
      {"measurement": "decrease in procyclic parasite growth", "setting": "[3]; 15 μM, 48 h", "value": 20, "unit": "%"},
      {"measurement": "effect on bloodstream parasite growth", "setting": "[4]", "value": "not able to significantly affect T. brucei growth or survival"},
      {"measurement": "IC50", "setting": "TcPARP", "value": 25, "unit": "nM"}
    ]}
  ]
}
